In US20120053182A1, “METHODS OF ALLEVIATING OR TREATING SIGNS AND/OR SYMPTOMS ASSOCIATED WITH MODERATE TO SEVERE PARKINSON'S DISEASE” (SCHERING CORPORATION, priority 2009, published 2012):
Like-named read-outs stand apart in the source and are kept apart here.

Tests used:
A2a receptors = molecular target: T1, A2a receptors (Homo sapiens, UniProt P29274); assay: PET scan receptor site occupancy study in healthy human volunteers; format: in vivo
T1 construct: PET scans of a human brain were obtained; from tissue; host or cells: brain of living healthy human volunteers (in vivo PET)
Experimental: In a separate study with healthy human volunteers, and with reference to FIG. 5, PET scans of a human brain were obtained after IV administration to a subject of a composition intravenous administration of the compound of Formula II which had been labeled with ^11C-radio-isotope and then after an interval subsequent intravenous administered the compound of Formula I.
This study was carried out using 18 subjects. Capsules containing a composition providing the compound of Formula I (unlabelled) in amounts of 10, 50, or 200 mg were also administered to a subset of test subjects prior to injection of the radio-labeled compound of Formula II. Using the information obtained from the PET scan regarding the extent, location, and inhibition of radiotracer binding permitted calculation of binding potentials for the compound of Formula I. The test subjects were also evaluated for plasma levels of the compound of Formula I during the study. […] These studies also indicate that the compound of Formula I has a selectivity for the A2a receptor site of 20,000:1 relative to binding at A1, A2b, and A3 receptor sites. This study is consistent with a therapeutic level of plasma concentration being provided by administering a composition orally which provides a human subject to whom it is administered with from at least about 2 mg of the compound of Formula I to about 10 mg of the compound of Formula I and preferably 5 mg of the compound of Formula I. It is believed that BID dosing of a composition providing from about 5 mg to about 50 mg of the compound of Formula I will provide at least about 50% receptor site occupancy for at least about 12 hours/day in at least about 80% of the human population and at least about 80% receptor site occupancy for at least about 18 hours/day in at least about 75% of the population.

[1] = Bioavailability by age or sex in healthy human volunteers; format: in vivo; conditions: composition used in the patient study
[2] = test system: akathisia induced by administration of Haldol; assay: Haldol-induced akathisia in healthy volunteers; format: in vivo, human; conditions: composition providing about 10 mg, FIG. 4
Text: It is believed that a composition which provides an effective amount of the compound of Formula I will also prevent feelings of restlessness, of example, Haldol-induced akathesia.

[3] = Pharmacokinetics after oral administration to healthy human volunteers; format: in vivo; conditions: composition providing about 5 mg, serum; for AUC: human, po, 5 mg, healthy human volunteers
[4] = test system: patients suffering from Parkinson's disease; assay: Clinical trial in patients with moderate to severe Parkinson's disease receiving L-dopa therapy; format: in vivo, human
Experimental: A clinical trial was carried out using 253 patients suffering from Parkinson's disease and receiving L-dopa therapy.
These patients were continued on their L-dopa therapy and randomized to receive in addition either a placebo (n=49), a composition administered orally BID in an amount providing 1 mg of the compound of Formula I (n=49), a composition administered orally BID in an amount providing 2 mg of the compound of Formula I (n=49), a composition administered orally BID in an amount providing 5 mg of the compound of Formula I (n=49), or a composition administered orally BID in an amount providing 10 mg of the compound of Formula I (n=57). This treatment was continued for 12 weeks while the patients kept a diary recording the “Off-time” periods, “On-time” periods (recording whether “On-time” was accompanied by dyskinesia or troubling dyskinesia) and their total amount of sleep time. These patients were also interviewed clinically and were evaluated as well in accordance with the UPDRS rating scale, as well as for when, and the duration of, sleep attacks experienced during the study. Blood chemistry was followed clinically at regular intervals.
Moreover, with reference to FIG. 3, assessment of patients was made using the Unified Parkinson's Disease Rating Scale (UPDRS) following several weeks of administration. […] With reference to FIG. 3, for example, UPDRS, part III scores were improved by showing a decrease of at least about 3 points below the baseline score at the start of the study.

[5] = at least about 2 mg BID oral, 12 weeks, with L-dopa, patient diary

T1 sequence (P29274 whole entry): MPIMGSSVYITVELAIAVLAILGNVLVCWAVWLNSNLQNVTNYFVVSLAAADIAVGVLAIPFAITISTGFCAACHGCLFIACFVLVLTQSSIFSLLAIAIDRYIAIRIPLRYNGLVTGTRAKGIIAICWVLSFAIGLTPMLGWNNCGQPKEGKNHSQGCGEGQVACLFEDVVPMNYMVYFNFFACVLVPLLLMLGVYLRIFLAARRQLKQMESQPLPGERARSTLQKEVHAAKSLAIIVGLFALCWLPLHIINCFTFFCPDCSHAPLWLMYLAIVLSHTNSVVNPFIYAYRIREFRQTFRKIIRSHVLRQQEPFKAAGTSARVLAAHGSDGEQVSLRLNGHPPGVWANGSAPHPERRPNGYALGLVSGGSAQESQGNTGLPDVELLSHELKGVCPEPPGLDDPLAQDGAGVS

For `COCCOc1ccc(N2CCN(CCN3N=CC4c5nc(-c6ccco6)nn5C(N)=NC43)CC2)cc1` (centres unmarked) [compound of Formula I], the receptor site occupancy (A2a receptors; BID dosing about 5 mg to about 50 mg, for at least about 12 hours/day in at least about 80% of the human population) was “at least 50%”, the receptor site occupancy (A2a receptors; BID dosing about 5 mg to about 50 mg, for at least about 18 hours/day in at least about 75% of the population) was “at least 80%” and the “brain distribution by PET scan” value (A2a receptors; human brain, 11C-labelled compound of Formula II as radiotracer) was “high concentrations of the compound of Formula I in regions of the brain known to contain high levels of A2a receptors”. The receptor occupancy at 0.05 µg/mL (A2a receptors; human, plasma concentrations in excess of about 50 ng/ml, believed to be Emax) was ~90%, the “plasma concentration at 50% receptor site occupancy” value (A2a receptors; on average, PET, humans) was 6 ng/mL and the receptor site occupancy (A2a receptors; plasma concentration levels exceeding about 25 ng/mL in humans) was “high level of receptor site occupancy”. The “differences in bioavailability (AUC or Cmax) between groups divided by age or sex” value [1] was “no statistically significant differences”, the “suppression of Haldol-induced akathisia” value [2] was “successful in suppressing akathisia” and the Cmax ([3]; average across healthy human volunteers) was 112 to 130 ng/mL. The AUC ([3]; AUC to time serum level drops below detectable limit, read-out: AUC(tf)) was 336 to 457 ng·h/mL, the AUC ([3]; read-out: AUC values measured from t=0 to 1 hr.) was 352 to 478 ng·h/mL and the “reports of common adverse events: Parkinsonism; somnolence; dyskinesia” value ([4]; 1, 2, 5 or 10 mg BID oral, 12 weeks, versus placebo group) was “no more frequency than was reported in the placebo group”. The “UPDRS part IV scores” value ([4]; amount sufficient to maintain steady state serum level of at least about 50 ng/ml) was “not accompanied by an increase”, the “decrease of UPDRS part III score below baseline” value ([4]; amount sufficient to maintain steady state serum level of at least about 50 ng/ml, FIG. 3, 2 hours post dose) was “at least 3 points” and the “proportion of "On-time" with dyskinesia or other motor complications” value ([4]; at least about 2 mg BID oral, 12 weeks, with L-dopa) was “no rise”. For the same molecule, the “periods of "Off-time"” value [4, 5] was “decrease”, the “periods of "On-time"” value [4, 5] was “improvement” and the “average daily patient "Off-time" periods” value ([4]; at least about 5 mg BID oral) was “decrease”. For the same molecule, the “average daily patient "On-time" periods” value ([4]; at least about 5 mg BID oral) was “increase”, the “objectional side effects, for example, dyskinesia, somnolence, or insomnia” value ([4]; at least about 5 mg BID oral) was “not accompanied by objectional side effects” and the UPDRS score ([4]; at least about 5 mg BID oral, throughout the course of the study) was “improvement in UPDRS score which is maintained throughout the course of the study”. The “induction of sleep attacks” value ([4]; effective amount, patient assessment by clinicians) was “not associated with induction of sleep attacks” and the “patient sleep patterns (total daily sleep time)” value ([4]; from about 2 mg BID to about 10 mg BID, FIG. 2) was “does not significantly adversely effect patient sleep patterns”.
